According to patent US20060014826A1, “Dioxocyclohexane carboxylic acid phenyl amide derivatives for modulating voltage-gated potassium channels and pharmaceutical compositions containing the same” (Wyeth, priority 2004, published 2006):

Assays:
[1] = biological target: T1, human Kv1.1/Kvβ1 potassium ion channel complex (Homo sapiens, UniProt Q09470+Q14722); assay: Inhibiting the inactivation of Kv1.1/Kvβ1 potassium ion channel complex, voltage clamp current recordings in Xenopus oocytes; assay type: cell-based; details: relative to control oocytes without test compound, read-out: Percent Increase in Steady State Current (@ concentration shown in parentheses)
T1 construct: expressed in transfected cells; host or cells: Xenopus oocytes injected with cRNA
Method: Compounds useful in this invention were examined for their ability to inhibit the inactivation of the human Kv1.1/Kvβ1 potassium ion channel complex in vitro using electrophysiological current recordings on inactivating Kv1.1/Kvβ1channels expressed in Xenopus oocytes. The following procedure was used.
Xenopus oocytes were harvested from frogs under general anesthesia using aseptic techniques. Oocytes were treated with 2 mg/ml collagenase for 1-1.5 hr, defolliculated, and injected with 40 nL cRNA (a mixture of hKv1.1 and hKvβ1) produced using standard molecular biological techniques (Sambrook, et al., 1989, Molecular Cloning: A Laboratory Manual). The concentration of hKv1.1/hKvβ1 cRNA varies, but was generally about 50 ng/μL hKv1.1 and […] hkβ1.
Currents were recorded using standard voltage clamp amplifiers at room temperature. Recordings were performed in the bath solution “ND-96” containing 96 mM NaCl, 2 mM KCl, 1 mm CaCl2, 1 mM MgCl2, 10 mM HEPES and […] Gentamycin (pH=7.6). The pipette (electrode) solution generally consisted of 3 mM KCl. Electrodes were made from WPI TW150F-4 borosilicate glass (or equivalent) and typically had resistances of 0.5-1.5 Mohms. The standard current—voltage (IV) pulse protocol consisted of voltage steps from −60 mV to +50 mV, in 10 mV increments for 200 ms, at a frequency of one IV set per 2 minutes. Data were digitized and analyzed by standard software packages.
Test compounds where first dissolved in DMSO to an initial concentration of 1-100 mM. Working dilutions of 1:2000 to 1:500 were made in the bath solution for final concentrations in the micromolar range. The bath solutions containing the test compounds were applied by bath perfusion using gravity or pump-driven flow. A minimum of 2 mL (10 times the bath volume) over 3 minutes were flowed for each compound concentration tested. Data were averaged across at least 3 cells tested for each concentration.
Test compounds were examined for their ability to inhibit the inactivation of the steady state portion of the IV curve.

T1 sequence (Q09470 whole entry): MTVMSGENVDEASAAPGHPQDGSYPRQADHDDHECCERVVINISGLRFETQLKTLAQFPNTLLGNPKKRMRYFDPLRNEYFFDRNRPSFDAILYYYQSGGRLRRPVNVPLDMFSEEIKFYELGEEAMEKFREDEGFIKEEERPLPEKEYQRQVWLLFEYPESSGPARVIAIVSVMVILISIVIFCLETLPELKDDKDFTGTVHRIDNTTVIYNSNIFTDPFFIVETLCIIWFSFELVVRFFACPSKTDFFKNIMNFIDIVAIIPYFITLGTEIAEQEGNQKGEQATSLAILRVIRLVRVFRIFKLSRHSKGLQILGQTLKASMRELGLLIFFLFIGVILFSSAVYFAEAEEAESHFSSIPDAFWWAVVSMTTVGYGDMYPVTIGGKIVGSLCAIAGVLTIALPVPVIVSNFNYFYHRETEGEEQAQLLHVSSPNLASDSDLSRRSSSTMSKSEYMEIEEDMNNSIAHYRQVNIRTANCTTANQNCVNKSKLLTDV
T1 sequence (Q14722 whole entry): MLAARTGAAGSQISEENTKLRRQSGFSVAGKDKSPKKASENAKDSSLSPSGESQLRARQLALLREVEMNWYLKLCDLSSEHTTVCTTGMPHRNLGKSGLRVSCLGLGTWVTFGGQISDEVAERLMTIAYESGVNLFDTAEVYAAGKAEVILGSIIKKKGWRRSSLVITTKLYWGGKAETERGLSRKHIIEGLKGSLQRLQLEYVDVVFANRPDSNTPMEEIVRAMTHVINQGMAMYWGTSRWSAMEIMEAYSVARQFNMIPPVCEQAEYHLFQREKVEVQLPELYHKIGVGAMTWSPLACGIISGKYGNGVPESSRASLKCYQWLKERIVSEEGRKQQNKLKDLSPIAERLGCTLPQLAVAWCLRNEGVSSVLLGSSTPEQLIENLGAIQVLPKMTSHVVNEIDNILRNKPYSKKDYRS

activation at 100 µM [1] | activation at 50 µM [1] | melting point | activation at 300 µM [1] | Compound
104% |  |  |  | CC1(C)CC(=O)C(C(=O)Nc2ccc([N+](=O)[O-])cc2)C(=O)C1 [Example 12, 4,4-dimethyl-N-(4-nitrophenyl)-2,6-dioxocyclohexanecarboxamide]
 | 18% | 91 to 92 °C |  | CCC1(C)CC(=O)C(C(=O)Nc2ccc(F)c(Cl)c2)C(=O)C1 (centres unmarked) [Example 16, N-(3-chloro-4-fluororphenyl)-4-ethyl-4-methyl-2,6-dioxocyclohexanecarboxamide]
 | 22% | 212 to 215 °C |  | CC1(C)CC(=O)C(C(=O)Nc2ccc(Cl)c(Cl)c2)C(=O)O1 (centres unmarked) [Example 23, N-(3,4-dichlorophenyl)-6,6-dimethyl-2,4-dioxotetrahydro-2H-pyran-3-carboxamide]
 | 173% | 144 to 145 °C |  | CC1(C)COC(=O)C(C(=O)Nc2ccc(Cl)c(C(F)(F)F)c2)C1=O (centres unmarked) [Example 26, N-[4-chloro-3-(trifluoromethyl)phenyl]-5,5-dimethyl-2,4-dioxotetrahydro-2H-pyran-3-carboxamide]
 | 8% |  |  | CC1(C)CC(=O)C(C(=O)Nc2cccc(C(F)(F)F)c2)C(=O)C1c1ccccc1 (centres unmarked) [Example 30, 4,4-Dimethyl-2,6-dioxo-3-phenyl-cyclohexanecarboxylic acid(3-trifluoromethyl-phenyl)-amide]
 | 13% | 149.6 to 150.1 °C |  | CC1(C)CC(=O)C(C(=O)Nc2cccc(C(F)(F)F)c2)C(=O)O1 (centres unmarked) [Example 21, N-[3-(trifluoromethyl)phenyl]-6,6-dimethyl-2,4-dioxotetrahydro-2H-pyran-3-carboxamide]
45% |  |  |  | CC1(C)CC(=O)C(C(=O)Nc2ccc(Cl)cc2C(F)(F)F)C(=O)C1 [Example 7, N-[4-chloro-2-(trifluoromethyl)phenyl]-4,4-dimethyl-2,6-dioxocyclohexanecarboxamide]
58% |  |  |  | CC1(C)CC(=O)C(C(=O)Nc2ccccc2[N+](=O)[O-])C(=O)C1 [Example 6, 4,4-dimethyl-N-(2-nitrophenyl)-2,6-dioxocyclohexanecarboxamide]
 | 10% |  |  | CC1(C)COC(=O)C(C(=O)Nc2ccc(C(F)(F)F)cc2)C1=O (centres unmarked) [Example 25, N-[4-(trifluoromethyl)phenyl]-5,5-dimethyl-2,4-dioxotetrahydro-2H-pyran-3-carboxamide]
 | 64% | 74 to 75 °C |  | CCC1(C)CC(=O)C(C(=O)Nc2ccc(Cl)c(Cl)c2)C(=O)C1 (centres unmarked) [Example 15, N-(3,4-dichlorophenyl)-4-ethyl-4-methyl-2,6-dioxocyclohexanecarboxamide]
 | 68% | 156 to 156.4 °C |  | CC1(C)CC(=O)C(C(=O)Nc2ccc(Cl)c(C(F)(F)F)c2)C(=O)O1 (centres unmarked) [Example 19, N-[4-chloro-3-(trifluoromethyl)phenyl]-6,6-dimethyl-2,4-dioxotetrahydro-2H-pyran-3-carboxamide]
 |  | 101 to 102 °C | 9% | CC1(C)CC(=O)C(C(=S)Nc2ccc(Cl)c(C(F)(F)F)c2)C(=O)C1 [Example 4, N-[4-chloro-3-(trifluoromethyl)phenyl]-4,4-dimethyl-2,6-dioxocyclohexane-carbothioamide]
 | 105% | 99 to 100 °C |  | CCC1(C)CC(=O)C(C(=O)Nc2ccc(C(F)(F)F)cc2)C(=O)C1 (centres unmarked) [Example 17, N-(4-trifluoromethylphenyl)-4-ethyl-4-methyl-2,6-dioxocyclohexanecarboxamide]
 | 10% | 138.4 to 139.6 °C |  | CC1(C)CC(=O)C(C(=O)Nc2cccc([N+](=O)[O-])c2)C(=O)O1 (centres unmarked) [Example 22, N-(3-nitrophenyl)-6,6-dimethyl-2,4-dioxotetrahydro-2H-pyran-3-carboxamide]
 | 17% | 175.9 to 176.4 °C |  | CC1(C)CC(=O)C(C(=O)Nc2ccc(C(F)(F)F)cc2)C(=O)O1 (centres unmarked) [Example 20, N-[4-(trifluoromethyl)phenyl]-6,6-dimethyl-2,4-dioxotetrahydro-2H-pyran-3-carboxamide]
 | 279% |  |  | CC1(C)CC(=O)C(C(=O)Nc2cc(Cl)cc(Cl)c2)C(=O)C1F (centres unmarked) [Example 28, 3-Fluoro-4,4-dimethyl-2,6-dioxo-cyclohexanecarboxylic acid(3,5-dichloro-phenyl)-amide]
 | 9% | 81 to 82 °C |  | CCC1(C)CC(=O)C(C(=O)Nc2cccc(C(F)(F)F)c2)C(=O)C1 (centres unmarked) [Example 13, N-(3-trifluoromethylphenyl)-4-ethyl-4-methyl-2,6-dioxocyclohexanecarboxamide]
 |  | 113 to 116 °C |  | CC1(C)CC(=O)C(C(=S)Nc2ccc(Cl)c(Cl)c2)C(=O)C1 [Example 3, N-(3,4-dichlorophenyl)-4,4-dimethyl-2,6-dioxocyclohexanecarbothioamide]
 | 1% |  |  | COCC1C(=O)C(C(=O)Nc2cccc(C(F)(F)F)c2)C(=O)CC1(C)C (centres unmarked) [Example 33, 3-Methoxymethyl-4,4-dimethyl-2,6-dioxo-cyclohexanecarboxylic acid (3-trifluoromethyl-phenyl)-amide]
 | 106% | 108 to 110 °C |  | O=C1CSCC(=O)C1C(=O)Nc1ccc(Cl)c(C(F)(F)F)c1 [Example 11, N-[4-chloro-3-(trifluoromethyl)phenyl]-3,5-dioxotetrahydro-2H-thiopyran-4-carboxamide]
 | 16% |  |  | CC1(C)CC(=O)C(C(=O)Nc2ccc(Cl)c(C(F)(F)F)c2)C(=O)C1 [Example 5, N-[4-chloro-3-(trifluoromethyl)phenyl]-4,4-dimethyl-2,6-dioxocyclohexanecarboxamide]
 | 191% | 129 °C |  | CC1(C)CC(=O)C(C(=O)Nc2ccc(C(F)(F)F)cc2)C(=O)C1F (centres unmarked) [Example 27, 3-Fluoro-4,4-dimethyl-2,6-dioxo-cyclohexanecarboxylic acid(4-trifluoromethyl-phenyl)-amide]
 | 227% |  |  | CCOC(=O)C1C(=O)C(C(=O)Nc2cccc(C(F)(F)F)c2)C(=O)C2CCCCC21 (centres unmarked) [Example 31, 2,4-Dioxo-3-(3-trifluoromethyl-phenylcarbamoyl)-decahydro-naphthalene-1-carboxylic acid ethyl ester]
 | 38% | 138 °C |  | CC(C)C1CC(=O)C(C(=O)Nc2ccc(Cl)c(Cl)c2)C(=O)C1 (centres unmarked) [Example 10, N-(3,4-dichlorophenyl)-4-isopropyl-2,6-dioxocyclohexanecarboxamide]
 | 5% |  |  | CC1(C)COC(=O)C(C(=O)Nc2cccc(C(F)(F)F)c2)C1=O (centres unmarked) [Example 24, N-[3-(trifluoromethyl)phenyl]-5,5-dimethyl-2,4-dioxotetrahydro-2H-pyran-3-carboxamide]
 | 98% | 87 to 88 °C |  | CCC1(C)CC(=O)C(C(=O)Nc2ccc(Cl)c(C(F)(F)F)c2)C(=O)C1 (centres unmarked) [Example 14, N-(4-chloro-3-trifluoromethylphenyl)-4-ethyl-4-methyl-2,6-dioxocyclohexanecarboxamide]
 |  |  | 95% | O=C1OC2(CCCC2)OC(=O)C1C(=S)Nc1ccc(Cl)c(C(F)(F)F)c1 [Example 34, 7,9-Dioxo-6,10-dioxa-spiro[4.5]decane-8-carbothioic acid(4-chloro-3-trifluoromethyl-phenyl)-amide]
 | 106% | 72 to 73 °C |  | CCC1(C)CC(=O)C(C(=O)Nc2cc(C(F)(F)F)cc(C(F)(F)F)c2)C(=O)C1 (centres unmarked) [Example 18, N-(3,5-bis-trifluoromethylphenyl)-4-ethyl-4-methyl-2,6-dioxocyclohexanecarboxamide]
 | 6% |  |  | CC1(c2ccccc2)CCC(=O)C(C(=O)Nc2cccc(C(F)(F)F)c2)C1=O (centres unmarked) [Example 32, 3-Methyl-2,6-dioxo-3-phenyl-cyclohexanecarboxylic acid(3-trifluoromethyl-phenyl)-amide]
 | 258% | 131 to 132 °C |  | CC1(C)CC(=O)C(C(=O)Nc2cc(F)cc(F)c2)C(=O)C1F (centres unmarked) [Example 29, 3-Fluoro-4,4-dimethyl-2,6-dioxo-cyclohexanecarboxylic acid(3,5-difluoro-phenyl)-amide]
